test system: MDA-MB-231; experiment: normalised response (% of control), CellTiter-Glo; higher = more viable cells (100 = DMSO, 0 = benzethonium chloride kill control); conditions: incubation time: 72 h
Procedure, shortened: (§1)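 In 384-well plates holding compound at 5 concentrations in 10-fold steps over a 10,000-fold range specific to each compound, breast cancer cell lines were seeded as 20 µl suspension and incubated 72 h. CellTox Green fluorescence was measured at 485/520 nm, after which CellTiter-Glo luminescence was measured following 10 min at room temperature. Plate signals were normalised to 0.1 % DMSO (100) and a positive kill control (0), and each value is the normalised signal at a single concentration.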

Compound | normalised response [%]
Cc1ccc(-n2nc(C(C)(C)C)cc2NC(=O)Nc2ccc(OCCN3CCOCC3)c3ccccc23)cc1 [Doramapimod] (10000 nM) | 87.5
Cc1ccc(C(=O)Nc2ccc(CN3CCN(C)CC3)c(C(F)(F)F)c2)cc1C#Cc1cnc2cccnn12 [Ponatinib] (1000 nM) | 15.5
COc1cc2nccc(Oc3ccc(NC(=O)C4(C(=O)Nc5ccc(F)cc5)CC4)cc3)c2cc1OC [Cabozantinib] (1000 nM) | 79.2
CC1(C)NC(=O)N(c2ccc([N+](=O)[O-])c(C(F)(F)F)c2)C1=O [Nilutamide] (10000 nM) | 105

test system: MFM-223; experiment: as above; conditions: incubation time: 72 h
Procedure, shortened: as §1

Compound | normalised response [%]
N[C@@H](CSC(c1ccccc1)(c1ccccc1)c1ccccc1)C(=O)O [S-trityl-L-cysteine] (40000 nM) | 92
CNCc1ccc(-c2[nH]c3cc(F)cc4c3c2CCNC4=O)cc1 [Rucaparib] (10000 nM) | 91
CO[C@H]1/C=C\C=C(/C)C(=O)NC2=CC(=O)C(NCCN(C)C)=C(C[C@@H](C)C[C@H](OC)[C@H](O)[C@@H](C)/C=C(\C)[C@@H]1OC(N)=O)C2=O [Alvespimycin] (1000 nM) | 39.2
CN(C)/N=N/c1[nH]cnc1C(N)=O [Dacarbazine] (10000 nM) | 103
Cc1ccc(-n2nc(C(C)(C)C)cc2NC(=O)Nc2ccc(OCCN3CCOCC3)c3ccccc23)cc1 [Doramapimod] (10000 nM) | 70.2
Cc1ccc(C(=O)Nc2ccc(CN3CCN(C)CC3)c(C(F)(F)F)c2)cc1C#Cc1cnc2cccnn12 [Ponatinib] (1000 nM) | 43.7
COc1cc2nccc(Oc3ccc(NC(=O)C4(C(=O)Nc5ccc(F)cc5)CC4)cc3)c2cc1OC [Cabozantinib] (1000 nM) | 64.6
CC1(C)NC(=O)N(c2ccc([N+](=O)[O-])c(C(F)(F)F)c2)C1=O [Nilutamide] (10000 nM) | 104

test system: BT-549; experiment: as above; conditions: incubation time: 72 h
Procedure, shortened: as §1

Compound | normalised response [%]
N[C@@H](CSC(c1ccccc1)(c1ccccc1)c1ccccc1)C(=O)O [S-trityl-L-cysteine] (40000 nM) | 106
CNCc1ccc(-c2[nH]c3cc(F)cc4c3c2CCNC4=O)cc1 [Rucaparib] (10000 nM) | 81.8
CO[C@H]1/C=C\C=C(/C)C(=O)NC2=CC(=O)C(NCCN(C)C)=C(C[C@@H](C)C[C@H](OC)[C@H](O)[C@@H](C)/C=C(\C)[C@@H]1OC(N)=O)C2=O [Alvespimycin] (1000 nM) | 39.5
CN(C)/N=N/c1[nH]cnc1C(N)=O [Dacarbazine] (10000 nM) | 99.4
Cc1ccc(-n2nc(C(C)(C)C)cc2NC(=O)Nc2ccc(OCCN3CCOCC3)c3ccccc23)cc1 [Doramapimod] (10000 nM) | 104
Cc1ccc(C(=O)Nc2ccc(CN3CCN(C)CC3)c(C(F)(F)F)c2)cc1C#Cc1cnc2cccnn12 [Ponatinib] (1000 nM) | 36
COc1cc2nccc(Oc3ccc(NC(=O)C4(C(=O)Nc5ccc(F)cc5)CC4)cc3)c2cc1OC [Cabozantinib] (1000 nM) | 104
CC1(C)NC(=O)N(c2ccc([N+](=O)[O-])c(C(F)(F)F)c2)C1=O [Nilutamide] (10000 nM) | 93.9

test system: CAL-51; experiment: as above; conditions: incubation time: 72 h
Procedure, shortened: as §1

Compound | normalised response [%]
N[C@@H](CSC(c1ccccc1)(c1ccccc1)c1ccccc1)C(=O)O [S-trityl-L-cysteine] (40000 nM) | 123
CNCc1ccc(-c2[nH]c3cc(F)cc4c3c2CCNC4=O)cc1 [Rucaparib] (10000 nM) | 93.3
CO[C@H]1/C=C\C=C(/C)C(=O)NC2=CC(=O)C(NCCN(C)C)=C(C[C@@H](C)C[C@H](OC)[C@H](O)[C@@H](C)/C=C(\C)[C@@H]1OC(N)=O)C2=O [Alvespimycin] (1000 nM) | 16.2
CN(C)/N=N/c1[nH]cnc1C(N)=O [Dacarbazine] (10000 nM) | 135
Cc1ccc(-n2nc(C(C)(C)C)cc2NC(=O)Nc2ccc(OCCN3CCOCC3)c3ccccc23)cc1 [Doramapimod] (10000 nM) | 105
Cc1ccc(C(=O)Nc2ccc(CN3CCN(C)CC3)c(C(F)(F)F)c2)cc1C#Cc1cnc2cccnn12 [Ponatinib] (1000 nM) | 47
COc1cc2nccc(Oc3ccc(NC(=O)C4(C(=O)Nc5ccc(F)cc5)CC4)cc3)c2cc1OC [Cabozantinib] (1000 nM) | 111
CC1(C)NC(=O)N(c2ccc([N+](=O)[O-])c(C(F)(F)F)c2)C1=O [Nilutamide] (10000 nM) | 76.1

test system: HCC1143; experiment: as above; conditions: incubation time: 72 h
Procedure, shortened: as §1

Compound | normalised response [%]
N[C@@H](CSC(c1ccccc1)(c1ccccc1)c1ccccc1)C(=O)O [S-trityl-L-cysteine] (40000 nM) | 92.8
CNCc1ccc(-c2[nH]c3cc(F)cc4c3c2CCNC4=O)cc1 [Rucaparib] (10000 nM) | 94.5
CO[C@H]1/C=C\C=C(/C)C(=O)NC2=CC(=O)C(NCCN(C)C)=C(C[C@@H](C)C[C@H](OC)[C@H](O)[C@@H](C)/C=C(\C)[C@@H]1OC(N)=O)C2=O [Alvespimycin] (1000 nM) | 33.1
CN(C)/N=N/c1[nH]cnc1C(N)=O [Dacarbazine] (10000 nM) | 109
Cc1ccc(-n2nc(C(C)(C)C)cc2NC(=O)Nc2ccc(OCCN3CCOCC3)c3ccccc23)cc1 [Doramapimod] (10000 nM) | 91.3
Cc1ccc(C(=O)Nc2ccc(CN3CCN(C)CC3)c(C(F)(F)F)c2)cc1C#Cc1cnc2cccnn12 [Ponatinib] (1000 nM) | 86
COc1cc2nccc(Oc3ccc(NC(=O)C4(C(=O)Nc5ccc(F)cc5)CC4)cc3)c2cc1OC [Cabozantinib] (1000 nM) | 95.3
CC1(C)NC(=O)N(c2ccc([N+](=O)[O-])c(C(F)(F)F)c2)C1=O [Nilutamide] (10000 nM) | 101

test system: MDA-MB-468; experiment: as above; conditions: incubation time: 72 h
Procedure, shortened: as §1

Compound | normalised response [%]
N[C@@H](CSC(c1ccccc1)(c1ccccc1)c1ccccc1)C(=O)O [S-trityl-L-cysteine] (40000 nM) | 104
CNCc1ccc(-c2[nH]c3cc(F)cc4c3c2CCNC4=O)cc1 [Rucaparib] (10000 nM) | 68.9
CO[C@H]1/C=C\C=C(/C)C(=O)NC2=CC(=O)C(NCCN(C)C)=C(C[C@@H](C)C[C@H](OC)[C@H](O)[C@@H](C)/C=C(\C)[C@@H]1OC(N)=O)C2=O [Alvespimycin] (1000 nM) | 34.2
CN(C)/N=N/c1[nH]cnc1C(N)=O [Dacarbazine] (10000 nM) | 99.8
Cc1ccc(-n2nc(C(C)(C)C)cc2NC(=O)Nc2ccc(OCCN3CCOCC3)c3ccccc23)cc1 [Doramapimod] (10000 nM) | 72.5
Cc1ccc(C(=O)Nc2ccc(CN3CCN(C)CC3)c(C(F)(F)F)c2)cc1C#Cc1cnc2cccnn12 [Ponatinib] (1000 nM) | 69.2

Reference: the supplement of paper PMC4862054
